# Values quoted from earlier work as cited in US10781471B2, “NRAS related cancer therapy” (Ruijin Hospital Affiliated to Shanghai Jiao Tong University …, priority 2014, dated 2020).
# Test system: acute lymphoblastic leukemia (ALL)
# Conditions: methotrexate 3.3 mg/m^2 in combination with 60 mg/m^2 of prednisone, given daily; induction in ALL patients
smiles,measurement,value
"CN(Cc1cnc2nc(N)nc(N)c2n1)c1ccc(C(=O)N[C@@H](CCC(=O)O)C(=O)O)cc1 [methotrexate, Methotrexate]",period within which remission was usually produced,4 to 6 weeks
same,"remissions, share of patients treated",50%
